Assay results reported in patent publication US8129546B2, “Derivatives for modulation of ion channels” (Vertex Pharmaceuticals Incorporated, priority 2005, dated 2012).

Test system: voltage-gated sodium ion channels (NaV)
Assay: Assays for detecting and measuring NaV inhibition (Table 3 activity)
Format: cell-based
Settings: NaV subtype and assay format not stated
Description: Compounds of the invention are useful as antagonists of voltage-gated sodium ion channels. Antagonist properties of test compounds were assessed as follows. Cells expressing the NaV of interest were placed into microtiter plates. After an incubation period, the cells were stained with fluorescent dyes sensitive to the transmembrane potential. The test compounds were added to the microtiter plate. The cells were stimulated with either a chemical or electrical means to evoke a NaV dependent membrane potential change from unblocked channels, which was detected and measured with trans-membrane potential-sensitive dyes. Antagonists were detected as a decreased membrane potential response to the stimulus. The optical membrane potential assay utilized voltage-sensitive FRET sensors described by Gonzalez and Tsien (See, Gonzalez, J. E. and R. Y. Tsien (1995) “Voltage sensing by fluorescence resonance energy transfer in single cells” Biophys J 69(4): 1272-80, and Gonzalez, J. E. and R. Y. Tsien (1997) “Improved indicators of cell membrane potential that use fluorescence resonance energy transfer” Chem Biol 4(4): 269-77) in combination with instrumentation for measuring fluorescence changes such as the Voltage/Ion Probe Reader (VIPR®) (See, Gonzalez, J. E., K. Oades, et al. (1999) “Cell-based assays and instrumentation for screening ion-channel targets” Drug Discov Today 4(9): 431-439).
VIPR® Optical Membrane Potential Assay Method with Chemical Stimulation
24 hours before the assay on VIPR, CHO cells […] expressing a NaV1.2 type voltage-gated NaV are seeded in 96-well poly-lysine coated plates at 60,000 cells per well. Other subtypes are performed in an analogous mode in a cell line expressing the NaV of interest. • 1) On the day of the assay, medium is aspirated and cells are washed twice with 225 μL of Bath Solution #2 (BS#2). • 2) A 15 μM CC2-DMPE solution is prepared by mixing 5 mM coumarin stock solution with 10% Pluronic 127 1:1 and then dissolving the mix in the appropriate volume of BS#2. • 3) After bath solution is removed from the 96-well plates, the cells are loaded with 80 μL of the CC2-DMPE solution. Plates are incubated in the dark for 30 minutes at room temperature. • 4) While the cells are being stained with coumarin, a […] oxonol solution in BS#2 is prepared. In addition to DiSBAC2(3), this solution should contain 0.75 mM ABSC1 and […] veratridine (prepared from 10 mM EtOH stock, Sigma #V-5754). • 5) After 30 minutes, CC2-DMPE is removed and the cells are washed twice with 225 μL of BS#2. As before, the residual volume should be 40 μL. • 6) Upon removing the bath, the cells are loaded with 80 μL of the DiSBAC2(3) solution, after which test compound, dissolved in DMSO, is added to achieve the desired test concentration to each well from the drug addition plate and mixed thoroughly. The volume in the well should be roughly 121 μL. The cells are then incubated for 20-30 minutes. • 7) Once the incubation is complete, the cells are ready to be assayed on VIPR® with a sodium addback protocol. 120 μL of Bath solution #1 is added to stimulate the NaV dependent depolarization. […] tetracaine was used as an antagonist positive control for block of the NaV channel. Analysis of VIPR® Data:
Data are analyzed and reported as normalized ratios of background-subtracted emission intensities measured in the 460 nm and 580 nm channels. Background intensities are then subtracted from each assay channel. Background intensities are obtained by measuring the emission intensities during the same time periods from identically treated assay wells in which there are no cells. The response as a function of time is then reported as the ratios obtained using the following formula: […]
The data is further reduced by calculating the initial (Ri) and final (Rf) ratios. These are the average ratio values during part or all of the pre-stimulation period, and during sample points during the stimulation period. […]

SMILES	Activity	IC50 [µM]
CNS(=O)(=O)C1CCN(C(=O)C(C)n2ccc3ccccc32)CC1 (centres unmarked) [Compound 1]	None	–
O=C(CCn1ccc2cc(Cl)ccc21)N1CCC(S(=O)(=O)Nc2ccccc2)CC1 [Compound 2, 1-[3-(5-chloro-1H-indol-1-yl)propanoyl]-N-phenyl-piperidine-4-sulfonamide]	–	5 to 20
CC(C(=O)N1CCC(S(=O)(=O)Nc2ccccc2)CC1)n1ccc2ccccc21 (centres unmarked) [Compound 3, 1-[2-(1H-Indol-1-yl)propanoyl]-N-phenyl-piperidine-4-sulfonamide]	–	5 to 20
O=C(COc1ccc(F)c(Cl)c1)N1CCC(S(=O)(=O)NCc2ccccc2)CC1 [Compound 4, N-Benzyl-1-[2-(3-chloro-4-fluoro-phenoxy)acetyl]-piperidine-4-sulfonamide]	–	5 to 20
O=C(COc1ccnc2c(C(F)(F)F)cccc12)N1CCC(S(=O)(=O)NCc2ccccc2)CC1 [Compound 5, N-Benzyl-1-[2-[[8-(trifluoromethyl)-4-quinolyl]oxy]acetyl]-piperidine-4-sulfonamide]	–	> 20
CN(C)S(=O)(=O)C1CCN(C(=O)CCn2ccc3cc(Cl)ccc32)CC1 [Compound 7, 1-[3-(5-Chloro-1H-indol-1-yl)propanoyl]-N,N-dimethyl-piperidine-4-sulfonamide]	–	> 20
O=C(CCn1ccc2cc(Cl)ccc21)N1CCC(S(=O)(=O)N2CCCC2)C1 (centres unmarked) [Compound 10, 3-(5-Chloro-1H-indol-1-yl)-1-(3-pyrrolidin-1-ylsulfonylpyrrolidin-1-yl)-propan-1-one]	–	5 to 20
O=C(COc1ccnc2c(C(F)(F)F)cccc12)N1CCC(S(=O)(=O)N2CCCC2)C1 (centres unmarked) [Compound 11, 1-(3-Pyrrolidin-1-ylsulfonylpyrrolidin-1-yl)-2-[[8-(trifluoromethyl)-4-quinoly]oxy]ethanone]	–	> 20
CC(C(=O)N1CCC(S(=O)(=O)Nc2ccccc2)C1)n1ccc2ccccc21 (centres unmarked) [Compound 12, 1-[2-(1H-Indol-1-yl)propanoyl]-N-phenyl-pyrrolidine-3-sulfonamide]	–	5 to 20
O=C(COc1ccc(F)c(Cl)c1)N1CCC(S(=O)(=O)NCc2ccccc2)C1 (centres unmarked) [Compound 13, N-Benzyl-1-[2-(3-chloro-4-fluoro-phenoxy)acetyl]-pyrrolidine-3-sulfonamide]	–	5 to 20
O=C(COc1ccnc2c(C(F)(F)F)cccc12)N1CCC(S(=O)(=O)NCc2ccccc2)C1 (centres unmarked) [Compound 14]	–	5 to 20
O=C(COc1ccc(F)c(Cl)c1)N1CCC(S(=O)(=O)Nc2ccccc2)C1 (centres unmarked) [Compound 15]	–	5 to 20
O=C(CCn1ccc2cc(Cl)ccc21)N1CCC(S(=O)(=O)Nc2ccccc2)C1 (centres unmarked) [Compound 16]	–	5 to 20
CC(C(=O)N1CCC(S(=O)(=O)NCc2ccccc2)C1)n1ccc2ccccc21 (centres unmarked) [Compound 17]	–	5 to 20
O=C(COc1ccc(F)c(Cl)c1)N1CCC(S(=O)(=O)N2CCCC2)C1 (centres unmarked) [Compound 18]	–	> 20
O=C(CCn1ccc2cc(Cl)ccc21)N1CCC(S(=O)(=O)NCc2ccccc2)CC1 [Compound 19]	–	5 to 20
O=C(COc1ccnc2c(C(F)(F)F)cccc12)N1CCC(S(=O)(=O)N2CCCC2)CC1 [Compound 20]	–	> 20
CC(C(=O)N1CCC(S(=O)(=O)N2CCCC2)C1)n1ccc2ccccc21 (centres unmarked) [Compound 21]	–	> 20
CNS(=O)(=O)C1CCN(C(=O)COc2ccnc3c(C(F)(F)F)cccc23)CC1 [Compound 23]	–	> 20

Test system: not given
Assay: not given
Settings: neuropathic pain; cited from earlier work

SMILES	share of patients in whom it works [%]
NCC1(CC(=O)O)CCCCC1 [Gabapentin]	60
